According to US11701315B2, “High energy visible light filter systems with yellowness index values” (High Performance Optics, Inc., priority 2006, dated 2023):

Assays:
[1] = in methanol, cited from earlier work
[2] = Transmission and absorption properties stated in the text for known lenses and dyes; format: physicochemical

Row | Structure (SMILES) | maximum of excitation spectrum ([1]; monitored at 600 nm emission) | major peak of absorbance spectrum [1] | absorption maximum [2]
1 | CC1=C(/C=C/C(C)=C/C=C/C(C)=C/c2cc(/C=C/C=C(C)/C=C/C3=C(C)CCCC3(C)C)cc[n+]2CCO)C(C)(C)CCC1 [A2E] | 418 nm | 435 nm | –
2 | c1cc2cccc3c4cccc5cccc(c(c1)c23)c54 [perylene] | – | – | 437 nm
